Measurements reported in patent publication US10729713B2, “Pharmaceutical composition for treating hepatitis, liver fibrosis, and liver cancer” (GUANGDONG PROVINCIAL HOSPITAL OF CHINESE MEDICINE, priority 2016, dated 2020).
Values belong to the compound of their own block, whether it stands above or below them.

Key:
[1] = test system: HBV; assay: Inhibition of HBV replication in HepG2.215 cells (HBsAg/HBeAg by ELISA, HBV gene by fluorescent quantitative PCR); type: cell-based, Hepatitis B Virus; conditions: for Expression of HBV gene / HBeAg / HBsAg: normalized, 100% for control group; for HBeAg / HBsAg: HepG2.215 supernatant, 48 h
Procedure: The drug of Example 4 is used. The concentration of Adefovir Dipivoxil was 1 μmol, and the vinegar-baked bupleurum root polysaccharides are at a medium dosage in corresponding dosage, one-half of the medium dosage is a low dosage, and twice of the medium dosage is a high dosage.
The experiment is started with HepG2.215 cells that were grown to 80% confluence.
The cells were assigned to 5 groups, comprising a blank control group, a treatment group with Adefovir Dipivoxil, a treatment group with Adefovir Dipivoxil in combination with high dosage of vinegar-baked bupleurum root polysaccharides, a treatment group with Adefovir Dipivoxil in combination with medium dosage of vinegar-baked bupleurum root polysaccharides, and a treatment group with Adefovir Dipivoxil in combination with low dosage of vinegar-baked bupleurum root polysaccharides. Culturing for 48 h after administration, the supernatant is collected, the expression of the HBV gene is determined by fluorescent quantitative PCR, and the HBsAg and HBeAg concentrations are determined by ELISA.
The experiment is started with HepG2.215 cells that are grown to 80% confluence. The cells were assigned to 5 groups, comprising a blank control group, a treatment group with Tenofovir, a treatment group with Tenofovir in combination with high, medium, and low dosage of vinegar-baked bupleurum root polysaccharides. The concentration of Tenofovir is 0.8 μmol, the medium dosage of vinegar-baked bupleurum root polysaccharides is a corresponding dosage in Example 7, one-half of which is the low dosage, and twice of which is the high dosage. Culturing for 48 h after administration, the supernatant is collected, the expression of the HBV gene is determined by fluorescent quantitative PCR, and the HBsAg and HBeAg concentrations are determined by ELISA.

[2] = In vivo distribution of Entecavir in mice; conditions: Entecavir 0.1 mg/kg, 5 consecutive days, combination with high dosage of polysaccharides (as Example 5), n = 6
Procedure: The bupleurum root polysaccharides enhance the distribution of Entecavir in liver, and reduce its distribution in other tissues.
The drug of Example 5 is used.
20 male mice are fasted for one night, but free accessed to water before the experiment. The animals are divided into three groups according to body weight, including a treatment group with Entecavir, and treatment groups with bupleurum root polysaccharides combined with Entecavir. The animals are administered for 5 consecutive days. The dosage of Entecavir is 0.1 mg/kg, and the corresponding dosage of bupleurum root polysaccharides in Example 5 is a high dosage, one-half of which is a low dosage. The animals are sacrificed after the last administration and the blood, heart, liver, spleen, lung, kidney, intestine, stomach, bone marrow, and brain are taken. 100 μL of plasma is directly precipitated by adding 800 μL of acetonitrile, and the supernatant is frozen and centrifuged. 500 μL of the supernatant is blow dried with nitrogen, and 100 μL of the mobile phase is added for reconstitution, and injected for analysis. 0.1 g of the tissue is added with 1 mL of water and homogenized. The homogenate is treated following the treatment method for the plasma.
Effect of bupleurum root polysaccharides on in vivo distribution of Entecavir (ng/mL)

[3] = Plasma and tissue distribution of Lamivudine in rats, liquid chromatography; type: in vivo, rat; conditions: Lamivudine 15 mg/kg, n = 6
Procedure: The pharmaceutical composition of the present invention enhances the Lamivudine level in the rat liver. Grouping of the test animals and administration are the same as the Example 1 (except that the drug used is the same as Example 3). The dosage of Lamivudine is 15 mg/kg, and the bupleurum root polysaccharides are at a corresponding dosage. The Lamivudine content was determined by liquid chromatography. 0.1 mL of plasma is added with 10 μL of 0.2 mol ammonium acetate, and then with 1 mL of acetonitrile, vortexed, and centrifuged. The supernatant is collected and injected for determination. 0.1 g of the tissue sample is added with 1 mL of physiological saline, homogenized, and treated following the same method as for the plasma sample. The Lamivudine contents in the plasma and tissue sample are determined.

[4] = drug modified with monophosphorylation, compared with the control group; cited from earlier work
[5] = Tissue distribution of oxymatrine (OM) and its metabolite matrine (M) in rats, LC-MS; type: in vivo, rat; conditions: po, OM 54 mg/kg single administration, sampled at 20, 60, 240 min, n = 6
Procedure: The pharmaceutical composition of the present invention enhances the distribution of oxymatrine (OM) in the rat liver. 36 rats are acclimated for 7 days, and randomized into a treatment group with oxymatrine (OM) alone, and a treatment group with a combined drug of the present invention (drug in Example 1). Wherein, the dosage of oxymatrine (OM) is 54 mg/kg, and the bupleurum root polysaccharides are used at a corresponding dosage in Example 1. After a single administration, blood is sampled from the abdominal aorta respectively at 20 min, 60 min, and 240 min. The rat is sacrificed, from which the liver, spleen, lung, kidney, and heart are removed. […] The concentrations of oxymatrine (OM) and its metabolite (M) are determined by LC-MS, the content in the tissue and the area under the curve are calculated.

[6] = test system: duck hepatitis B virus (DHBV); assay: Effect against duck hepatitis B virus in DHBV-infected ducklings; type: in vivo; conditions: DHBV-infected ducks; Telbivudine 80 mg·kg^−1 alone, gastric perfusion twice a day, 10 days; 100% for control group
[7] = HepG2.215, 48 h, text summary of Table 4
[8] = Adefovir Dipivoxil 1 μmol alone

Structure (SMILES): CC(C)(C)C(=O)OCOP(=O)(COCCn1cnc2c(N)ncnc21)OCOC(=O)C(C)(C)C [Adefovir Dipivoxil]
Expression of HBV gene ([1]; HepG2.215, 48 h, Adefovir Dipivoxil 1 μmol alone): 50 ± 5.3% | inhibition rate for gene expression [1, 7]: 50% | inhibition rate on the replication of HBV (HBsAg, HBeAg) [1, 7]: 60-65% | HBeAg [1, 8]: 40 ± 3.4% | HBsAg [1, 8]: 35 ± 1.2%

Structure (SMILES): C=C1[C@H](CO)[C@@H](O)C[C@@H]1n1cnc2c(=O)[nH]c(N)nc21 [Entecavir]
Entecavir concentration, Marrow ([2]; mouse bone marrow): 18.9 ng/L | Entecavir concentration, Heart ([2]; mouse heart): 26.14 ng/L | Entecavir concentration, Instine ([2]; mouse intestine): 24.3 ng/L | Entecavir concentration, Kidney ([2]; mouse kidney): 27.5 ng/L | Entecavir concentration, Liver ([2]; mouse liver): 26.8 ng/L | Entecavir concentration, Lung ([2]; mouse lung): 26.3 ng/L | Entecavir concentration, Plasma ([2]; mouse plasma): 30.6 ng/L | Entecavir concentration, Spleen ([2]; mouse spleen): 28.4 ng/L | Entecavir concentration, Stomach ([2]; mouse stomach): 25.6 ng/L

Structure (SMILES): Cc1cn([C@@H]2C[C@@H](O)[C@H](CO)O2)c(=O)[nH]c1=O [Telbivudine]
Expression of HBV gene [6]: 50.5 ± 5.3% | HBeAg [6]: 37.2 ± 3.4% | HBsAg [6]: 30 ± 1.3%

Structure (SMILES): C[C@H](Cn1cnc2c(N)ncnc21)OCP(=O)(O)O [Tenofovir]
Expression of HBV gene ([1]; HepG2.215, 48 h, Tenofovir 0.8 μmol alone): 45.2 ± 5.3% | HBeAg ([1]; Tenofovir 0.8 μmol alone): 39.8 ± 2.4% | HBsAg ([1]; Tenofovir 0.8 μmol alone): 33.2 ± 1.2%

Now from value to compound, other results behind:

AUC ([3]; rat heart, read-out: AUC of Lamivudine, Heart): 26.8 ng·h/mL | AUC ([3]; rat kidney, read-out: AUC of Lamivudine, Kidney): 24.3 ng·h/mL | AUC ([3]; rat liver, read-out: AUC of Lamivudine, Liver): 27.3 ng·h/mL | AUC ([3]; rat lung, read-out: AUC of Lamivudine, Lung): 23.1 ng·h/mL | AUC ([3]; rat plasma, read-out: AUC of Lamivudine, Plasma): 25.4 ng·h/mL | AUC ([3]; rat spleen, read-out: AUC of Lamivudine, Spleen): 30.2 ng·h/mL | AUC ([3]; rat stomach, read-out: AUC of Lamivudine, Stomach): 28.8 ng·h/mL
Structure (SMILES): Nc1ccn([C@@H]2CS[C@H](CO)O2)c(=O)n1 [Lamivudine]
increase of AUC [4]: 11.2 times | increase of the concentration of Lamivudine in the liver [4]: 7.7 times

AUC ([5]; rat heart, read-out: AUC of oxymatrine, Heart): 125 ng·h/mL | AUC ([5]; rat kidney, read-out: AUC of oxymatrine, Kidney): 69.7 ng·h/mL | AUC ([5]; rat liver, read-out: AUC of oxymatrine, Liver): 125 ng·h/mL | AUC ([5]; rat lung, read-out: AUC of oxymatrine, Lung): 366 ng·h/mL | AUC ([5]; rat plasma, read-out: AUC of oxymatrine, Plasma): 520 ng·h/mL | AUC ([5]; rat spleen, read-out: AUC of oxymatrine, Spleen): 64.9 ng·h/mL
Structure (SMILES): O=C1CCC[C@@H]2[C@H]3CCC[N+]4([O-])CCC[C@@H](CN12)[C@@H]34 (some centres unmarked) [OM, oxymatrine]
